Test results reported in ChEMBL document CHEMBL5370643, “Discovery of MK-1468: A Potent, Kinome-Selective, Brain-Penetrant Amidoisoquinoline LRRK2 Inhibitor for the Potential Treatment of Parkinson's Disease” (J Med Chem, 2023).
Values after ≈ are worked out from the molar mass of the structure shown.

Legend:
[1] = Toxicity in Wistar-Han rat assessed as degeneration of seminiferous epithelium in testes at 750 mg/kg, po administered once daily for 7 days; assay type: organism-based; settings: in vivo, 168 h, time 7 day
[2] = target: Leucine-rich repeat serine/threonine-protein kinase 2 (Homo sapiens) (UniProt Q5S007); test: Inhibition of LRRK2 in human PBMC using LRRKtide peptide as substrate assessed as Ser935 dephosphorylation preincubated with compound for 15 mins followed by substrate addition and measured after 90 mins in presence of ATP by TR-FRET assay; assay type: cell-based; settings: time 105.0 min
hERG = hERG (Homo sapiens, UniProt Q12809); test: Inhibition of hERG expressed in CHO cells at 10 uM by QPatch voltage clamp assay relative to control; assay type: toxicity, cell-based; settings: CHO cells expressing hERG
rat Mdr1a P-gp = test: Apparent permeability across apical to basolateral side in LLC-PK1 cells transfected with rat Mdr1a P-gp incubated for 3 hrs by LC-MS/MS analysis; settings: pig
[3] = target: Voltage-gated inwardly rectifying potassium channel KCNH2 (Homo sapiens, UniProt Q12809); test: Inhibition of hERG expressed in CHO cells by QPatch voltage clamp assay
Voltage-gated inwardly rectifying potassium channel KCNH2, sequence (Q12809 whole entry): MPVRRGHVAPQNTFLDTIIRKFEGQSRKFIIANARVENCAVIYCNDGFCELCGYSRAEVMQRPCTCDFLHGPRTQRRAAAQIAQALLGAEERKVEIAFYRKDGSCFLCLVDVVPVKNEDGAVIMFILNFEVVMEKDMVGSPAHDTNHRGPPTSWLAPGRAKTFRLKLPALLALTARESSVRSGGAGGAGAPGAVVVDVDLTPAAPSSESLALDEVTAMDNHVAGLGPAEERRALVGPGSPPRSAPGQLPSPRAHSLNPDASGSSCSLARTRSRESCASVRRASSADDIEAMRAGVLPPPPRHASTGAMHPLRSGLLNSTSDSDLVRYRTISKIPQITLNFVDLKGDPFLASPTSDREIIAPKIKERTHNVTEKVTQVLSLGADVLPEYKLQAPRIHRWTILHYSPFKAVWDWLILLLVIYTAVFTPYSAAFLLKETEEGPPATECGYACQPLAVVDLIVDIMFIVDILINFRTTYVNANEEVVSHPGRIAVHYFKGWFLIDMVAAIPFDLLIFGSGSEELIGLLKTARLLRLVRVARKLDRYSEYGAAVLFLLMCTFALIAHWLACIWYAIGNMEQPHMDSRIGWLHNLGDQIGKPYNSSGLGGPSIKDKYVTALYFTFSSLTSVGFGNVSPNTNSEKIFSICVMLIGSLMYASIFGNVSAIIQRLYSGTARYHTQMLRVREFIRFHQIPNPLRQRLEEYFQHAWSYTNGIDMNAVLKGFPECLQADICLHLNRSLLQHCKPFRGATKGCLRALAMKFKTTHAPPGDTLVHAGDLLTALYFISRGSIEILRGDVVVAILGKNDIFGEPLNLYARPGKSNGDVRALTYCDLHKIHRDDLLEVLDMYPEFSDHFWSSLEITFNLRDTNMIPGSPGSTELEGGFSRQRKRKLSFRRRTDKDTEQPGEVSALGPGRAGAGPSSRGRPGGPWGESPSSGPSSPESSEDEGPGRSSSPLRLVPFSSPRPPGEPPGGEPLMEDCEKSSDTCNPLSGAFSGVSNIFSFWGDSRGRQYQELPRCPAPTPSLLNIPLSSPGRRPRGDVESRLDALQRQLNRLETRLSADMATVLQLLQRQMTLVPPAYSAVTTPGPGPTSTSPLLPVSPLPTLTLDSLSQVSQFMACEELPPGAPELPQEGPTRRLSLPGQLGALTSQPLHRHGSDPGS

[4] = Oral bioavailability in Wistar-Han rat at 5 mg/kg measured after 24 hrs by LC-MS/MS analysis; assay type: ADME, organism-based; settings: in vivo
[5] = MRT in Wistar-Han rat at 3 mg/kg, iv measured after 24 hrs by LC-MS/MS analysis; assay type: ADME, organism-based; settings: in vivo
[6] = Total clearance in Beagle dog at 0.5 mg/kg, iv measured after 24 hrs by LC-MS/MS analysis; assay type: ADME, organism-based, Canis lupus familiaris; settings: in vivo
[7] = Oral bioavailability in Beagle dog at 5 mg/kg measured after 24 hrs by LC-MS/MS analysis; assay type: ADME, organism-based, Canis lupus familiaris; settings: in vivo
[8] = Protein binding in rat plasma incubated for 4 hrs by equilibrium dialysis method; assay type: ADME, cell-free; settings: read-out: PPB (converted)
[9] = Protein binding in dog plasma incubated for 4 hrs by equilibrium dialysis method; assay type: ADME, cell-free, Canis lupus familiaris; settings: read-out: PPB (converted)
[10] = Protein binding in rhesus monkey plasma incubated for 4 hrs by equilibrium dialysis method; assay type: ADME, cell-free, Macaca mulatta; settings: read-out: PPB (converted)
[11] = Kinetic solubility of compound in PBS at pH 2 measured after 24 hrs by UPLC/DAD analysis; assay type: physicochemical; settings: read-out: Kinetic_solubility
[12] = target: KCNQ1/KCNE1 (IKs, Kv7.1/MinK) (Homo sapiens, UniProt P15382+P51787); test: Inhibition of human KCNQ1/KCNE1 expressed in HEK293 cells at 30 uM by QPatch voltage clamp assay relative to control; assay type: cell-based; settings: HEK293 cells expressing human KCNQ1/KCNE1
KCNQ1/KCNE1 (IKs, Kv7.1/MinK), sequence (P51787 whole entry): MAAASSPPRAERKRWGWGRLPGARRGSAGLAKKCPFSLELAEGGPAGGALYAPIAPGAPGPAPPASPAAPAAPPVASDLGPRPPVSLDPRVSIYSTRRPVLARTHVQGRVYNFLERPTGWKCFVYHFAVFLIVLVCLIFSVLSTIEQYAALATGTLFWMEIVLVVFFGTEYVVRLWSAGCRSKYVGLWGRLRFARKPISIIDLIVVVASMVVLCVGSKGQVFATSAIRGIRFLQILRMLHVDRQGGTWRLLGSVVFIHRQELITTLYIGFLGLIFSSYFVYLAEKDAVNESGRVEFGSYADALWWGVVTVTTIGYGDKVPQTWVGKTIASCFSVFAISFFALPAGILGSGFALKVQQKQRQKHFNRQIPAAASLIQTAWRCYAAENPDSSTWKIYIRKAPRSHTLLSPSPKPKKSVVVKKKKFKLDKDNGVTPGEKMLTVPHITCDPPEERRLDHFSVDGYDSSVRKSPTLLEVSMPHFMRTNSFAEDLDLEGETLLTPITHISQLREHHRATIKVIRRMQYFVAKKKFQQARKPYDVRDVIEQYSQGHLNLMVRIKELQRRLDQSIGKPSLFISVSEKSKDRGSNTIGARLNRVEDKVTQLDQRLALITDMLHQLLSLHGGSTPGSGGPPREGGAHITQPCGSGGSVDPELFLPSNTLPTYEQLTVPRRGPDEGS

Nav1.5 (SCN5A) = Nav1.5 (SCN5A) (Homo sapiens, UniProt Q14524); test: Inhibition of human Nav1.5 expressed in HEK293 cells at 10 uM by QPatch voltage clamp assay relative to control; assay type: cell-based; settings: HEK293 cells expressing human Nav1.5
Nav1.5 (SCN5A), sequence (Q14524 whole entry): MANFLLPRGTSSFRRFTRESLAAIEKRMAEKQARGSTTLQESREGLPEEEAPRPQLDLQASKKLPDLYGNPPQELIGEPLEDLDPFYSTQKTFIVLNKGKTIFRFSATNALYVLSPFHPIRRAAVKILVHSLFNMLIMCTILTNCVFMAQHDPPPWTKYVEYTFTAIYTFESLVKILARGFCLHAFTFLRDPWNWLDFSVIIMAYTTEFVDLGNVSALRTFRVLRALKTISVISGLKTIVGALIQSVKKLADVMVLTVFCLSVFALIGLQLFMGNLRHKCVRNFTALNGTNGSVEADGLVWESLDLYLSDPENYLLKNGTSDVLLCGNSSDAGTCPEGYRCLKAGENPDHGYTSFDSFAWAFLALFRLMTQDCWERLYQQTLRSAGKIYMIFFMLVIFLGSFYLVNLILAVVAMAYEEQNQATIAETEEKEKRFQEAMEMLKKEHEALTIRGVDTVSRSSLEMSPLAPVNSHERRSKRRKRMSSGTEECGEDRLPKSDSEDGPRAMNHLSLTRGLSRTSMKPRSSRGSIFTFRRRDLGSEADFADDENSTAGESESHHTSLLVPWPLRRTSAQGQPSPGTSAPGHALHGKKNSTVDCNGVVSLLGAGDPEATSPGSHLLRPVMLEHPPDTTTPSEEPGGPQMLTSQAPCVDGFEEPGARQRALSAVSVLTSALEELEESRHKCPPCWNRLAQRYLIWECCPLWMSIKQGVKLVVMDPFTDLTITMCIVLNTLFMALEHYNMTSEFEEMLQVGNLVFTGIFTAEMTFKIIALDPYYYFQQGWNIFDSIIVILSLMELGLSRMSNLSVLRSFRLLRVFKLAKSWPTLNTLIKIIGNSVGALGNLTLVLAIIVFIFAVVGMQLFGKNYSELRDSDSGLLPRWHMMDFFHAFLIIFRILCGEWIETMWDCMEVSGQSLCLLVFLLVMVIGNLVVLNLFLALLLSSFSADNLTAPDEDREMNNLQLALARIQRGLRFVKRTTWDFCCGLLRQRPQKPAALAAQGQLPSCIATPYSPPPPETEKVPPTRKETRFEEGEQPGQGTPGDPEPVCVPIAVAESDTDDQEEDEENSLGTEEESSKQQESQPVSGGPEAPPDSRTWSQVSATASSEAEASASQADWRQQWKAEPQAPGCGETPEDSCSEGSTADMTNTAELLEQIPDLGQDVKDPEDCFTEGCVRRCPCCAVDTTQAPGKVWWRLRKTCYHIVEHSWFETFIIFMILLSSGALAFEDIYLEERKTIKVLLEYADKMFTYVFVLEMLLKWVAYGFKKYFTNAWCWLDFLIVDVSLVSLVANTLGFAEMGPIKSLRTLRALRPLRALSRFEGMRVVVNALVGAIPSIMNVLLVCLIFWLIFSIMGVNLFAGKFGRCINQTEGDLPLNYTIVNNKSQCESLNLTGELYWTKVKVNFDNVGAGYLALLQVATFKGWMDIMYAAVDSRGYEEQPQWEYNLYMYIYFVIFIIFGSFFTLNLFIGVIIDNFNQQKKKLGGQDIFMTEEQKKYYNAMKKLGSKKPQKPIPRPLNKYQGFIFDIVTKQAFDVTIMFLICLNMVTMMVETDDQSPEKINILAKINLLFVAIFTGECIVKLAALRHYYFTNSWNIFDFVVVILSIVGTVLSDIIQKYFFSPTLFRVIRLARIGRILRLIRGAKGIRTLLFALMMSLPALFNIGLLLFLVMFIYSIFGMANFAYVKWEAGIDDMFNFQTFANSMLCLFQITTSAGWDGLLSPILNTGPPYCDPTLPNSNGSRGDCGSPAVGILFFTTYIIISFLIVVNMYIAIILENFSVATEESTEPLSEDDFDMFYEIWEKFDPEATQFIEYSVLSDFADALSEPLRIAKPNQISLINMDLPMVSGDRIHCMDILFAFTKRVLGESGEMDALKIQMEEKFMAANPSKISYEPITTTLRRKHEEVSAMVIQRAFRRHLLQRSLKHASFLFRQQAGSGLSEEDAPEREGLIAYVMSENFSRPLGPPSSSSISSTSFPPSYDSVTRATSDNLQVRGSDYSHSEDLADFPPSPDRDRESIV

[13] = Unbound drug concentration in guinea pig plasma at 5 mg/kg, iv administered continuously for 20 mins; assay type: ADME, organism-based, Cavia porcellus; settings: in vivo
[14] = Unbound drug concentration in guinea pig plasma at 20 mg/kg, iv administered continuously for 20 mins; assay type: ADME, organism-based, Cavia porcellus; settings: in vivo
[15] = Cardiotoxicity in guinea pig assessed as effect on heart rate at 5 to 20 mg/kg, iv administered continuously for 20 min by ECG analysis; assay type: toxicity, organism-based, Cavia porcellus; settings: in vivo, dose 5-20 mg/kg
[16] = Genotoxicity in human TK6 cells assessed as induction of DNA damage upto 31.9 uM; assay type: toxicity, cell-based; settings: tk6, 31.9 µM
Brain = test: In vivo inhibition of LRRK2 in Wistar-Han rat assessed as reduction in Ser935 phosphorylation in brain at 1 to 100 mg/kg, po measured after 2 hrs; assay type: functional; settings: dose 1-100 mg/kg
PBMC = test: Inhibition of LRRK2 in rat PBMC assessed as Ser935 dephosphorylation; assay type: cell-based
[17] = Cmax in Wistar-Han rat at 48 mg administered twice a day by LC-MS/MS analysis; assay type: ADME; parameters: dose 48 mg; settings: in vivo
[18] = Toxicity in Wistar-Han rat assessed as effect on systolic blood pressure at 60 mg/kg, po administered as single dose and measured upto 24 hrs by telemetric analysis; assay type: organism-based; settings: in vivo
[19] = Toxicity in Wistar-Han rat assessed as effect on heart rate at 60 mg/kg, po administered as single dose and measured upto 24 hrs by telemetric analysis; assay type: organism-based; settings: in vivo
[20] = Toxicity in Wistar-Han rat assessed as effect on body temperature at 60 mg/kg, po administered as single dose and measured upto 24 hrs by telemetric analysis; assay type: organism-based; settings: in vivo
[21] = Toxicity in Wistar-Han rat assessed as effect on heart rate at 225 mg/kg, po administered as single dose and measured after 5 to 8 hrs by telemetric analysis; assay type: organism-based; settings: in vivo, time 5-8 hrs
[22] = Toxicity in Wistar-Han rat assessed as effect on arterial pulse pressure at 225 mg/kg, po administered as single dose and measured upto 24 hrs by telemetric analysis; assay type: organism-based; settings: in vivo
[23] = Toxicity in Wistar-Han rat assessed as effect on body temperature at 225 mg/kg, po administered as single dose and measured upto 24 hrs by telemetric analysis; assay type: organism-based; settings: in vivo
[24] = Toxicity in po dosed Wistar-Han rat assessed as NOAEL measured upto 24 hrs; assay type: organism-based; settings: in vivo, read-out: Activity
[25] = AUC in Wistar-Han rat at 40 mg/kg, po administered once daily for 7 days; assay type: ADME, organism-based; parameters: dose 40 mg/kg, time 7 day, route po; settings: in vivo
[26] = AUC in Wistar-Han rat at 750 mg/kg, po administered once daily for 7 days; assay type: ADME, organism-based; parameters: dose 750 mg/kg, time 7 day, route po; settings: in vivo
[27] = Toxicity in Wistar-Han rat assessed as clinical observations at 750 mg/kg, po administered once daily for 7 days; assay type: organism-based; settings: in vivo, 168 h, time 7 day
[28] = Toxicity in Wistar-Han rat assessed as erosion of nonglandular stomach at 750 mg/kg, po administered once daily for 7 days; assay type: organism-based; settings: in vivo, 168 h, time 7 day
[29] = Toxicity in Wistar-Han rat assessed as micronucleus induction in bone marrow at 40 to 750 mg/kg, po administered once daily for 7 days by micronucleus test; assay type: organism-based; settings: in vivo, 168 h, dose 40-750 mg/kg, time 7 day
[30] = AUC in rhesus monkey at 100 mg/kg, po administered once daily for 7 days; assay type: ADME, organism-based, Macaca mulatta; parameters: dose 100 mg/kg, time 7 day, route po; settings: in vivo
[31] = AUC in rhesus monkey at 200 mg/kg, po administered once daily for 7 days; assay type: ADME, organism-based, Macaca mulatta; parameters: dose 200 mg/kg, time 7 day, route po; settings: in vivo
[32] = AUC in rhesus monkey at 800 mg/kg, po administered once daily for 7 days; assay type: ADME, organism-based, Macaca mulatta; parameters: time 7 day, dose 800 mg/kg, route po; settings: in vivo
[33] = Toxicity in rhesus monkey assessed as lung type II pneumocyte hypertrophy at 200 to 800 mg/kg, po administered once daily for 7 days; assay type: organism-based, Macaca mulatta; settings: in vivo, 168 h, dose 200-800 mg/kg, time 7 day
[34] = In vivo inhibition of LRRK2 in rhesus monkey assessed as reduction in Ser935 phosphorylation in blood PBMC at 100 to 800 mg/kg, po administered once daily for 7 days; assay type: functional, Macaca mulatta; settings: dose 100-800 mg/kg, time 7 day
[35] = In vivo inhibition of LRRK2 in rhesus monkey assessed as reduction in Ser935 phosphorylation in brain at 100 to 800 mg/kg, po administered once daily for 7 days; assay type: functional, Macaca mulatta; settings: dose 100-800 mg/kg, time 7 day

**Q.** For `C[C@@]1(N2CCN(c3cc4cc(NC(=O)[C@H]5CC56CCOCC6)ncc4cc3Cl)CC2)COC[C@@H]1O`, which Activity [1] is on record?
**A.** Toxic

**Q.** And the fIC50 [2]?
**A.** 2.8 nM

**Q.** And the inhibition at 10 µM (hERG)?
**A.** 15%

**Q.** And the Papp A→B at 3 h (rat Mdr1a P-gp)?
**A.** 30 ×10⁻⁶ cm/s

**Q.** And the IC50 [3]?
**A.** > 60 µM

**Q.** And the bioavailability [4]?
**A.** 56%

**Q.** What about the MRT [5] of the same compound?
**A.** 2.2 h

**Q.** What about the clearance [6] of the same compound?
**A.** 11 mL/min/kg

**Q.** What about the bioavailability [7] of the same compound?
**A.** 100%

**Q.** What about the fraction unbound at 4 h [8] of the same compound?
**A.** 0.115

**Q.** And the fraction unbound at 4 h [9]?
**A.** 0.13

**Q.** What about the fraction unbound at 4 h [10] of the same compound?
**A.** 0.12

**Q.** And the solubility kinetic at 24 h [11]?
**A.** 182 µM (≈ 91.2 µg/mL)

**Q.** And the inhibition at 30 µM [12]?
**A.** 18%

**Q.** What about the inhibition at 10 µM (Nav1.5 (SCN5A)) of the same compound?
**A.** 23%

**Q.** What about the “Cp(f)” value [13] of the same compound?
**A.** 1290 nM

**Q.** What about the “Cp(f)” value [14] of the same compound?
**A.** 11900 nM

**Q.** And the Activity [15]?
**A.** Non-Toxic

**Q.** And the Activity [16]?
**A.** Non-Toxic

**Q.** And the fIC50 (Brain)?
**A.** 33 nM

**Q.** And the fIC50 (PBMC)?
**A.** 25 nM

**Q.** And the Cmax [17]?
**A.** 750 nM

**Q.** What about the Activity [18] of the same compound?
**A.** Non-Toxic

**Q.** And the Activity [19]?
**A.** Non-Toxic

**Q.** What about the Activity [20] of the same compound?
**A.** Non-Toxic

**Q.** And the Activity [21]?
**A.** Toxic

**Q.** What about the Activity [22] of the same compound?
**A.** Non-Toxic

**Q.** And the Activity [23]?
**A.** Non-Toxic

**Q.** What about the NOAEL at 24 h [24] of the same compound?
**A.** 60 mg/kg

**Q.** And the AUC at 168 h [25]?
**A.** 8.1 µM·h

**Q.** What about the AUC at 168 h [26] of the same compound?
**A.** 395 µM·h

**Q.** What about the Activity [27] of the same compound?
**A.** Non-Toxic

**Q.** What about the Activity [28] of the same compound?
**A.** Toxic

**Q.** What about the Activity [29] of the same compound?
**A.** Non-Toxic

**Q.** What about the AUC at 168 h [30] of the same compound?
**A.** 14 µM·h

**Q.** And the AUC at 168 h [31]?
**A.** 25 µM·h

**Q.** And the AUC at 168 h [32]?
**A.** 63 µM·h

**Q.** And the Activity [33]?
**A.** Toxic

**Q.** What about the fIC50 [34] of the same compound?
**A.** 4.7 nM

**Q.** What about the fIC50 [35] of the same compound?
**A.** 7 nM
